Results on eleven compounds are retold here after ChEMBL document CHEMBL5608191, “Structure-based discovery of novel piperidine-biphenyl-DAPY derivatives as non-nucleoside reverse transcriptase inhibitors featuring improved potency, safety, and selectivity: From piperazine-biphenyl-DAPYs to piperidine-biphenyl-DAPYs” (Eur J Med Chem, 2024).

Data set [1] can be described thus: Solubility of compound in phosphate buffer at pH 7.4 by HPLC analysis. It counts as physicochemical.
Data set [2] in a line: Solubility of compound in phosphate buffer at pH 7 by HPLC analysis. It counts as physicochemical.
Data set [3] in a line: Solubility of compound in water by HPLC analysis. The class given is physicochemical.
A short description of data set [4]: Solubility of compound in phosphate buffer at pH 2 by HPLC analysis. It counts as physicochemical.
A short description of data set [5]: Cytotoxicity against human MT4 cells assessed as reduction in cell viability incubated for 5 days by MTT assay. It counts as toxicity, cell-based. The following applies: time 5 day. A general note: Tetrazolium dyes change colour on reduction, which living cells bring about.
The nature of data set [6]: Acute toxicity in mouse assessed as apparent pathological damage in spleen treated for 14 days by H and E staining based analysis. The class given is tissue-based. The following applies: in vivo, 336 h, time 14 day.
A short description of data set [7]: Acute toxicity in mouse assessed as drug tolerance at 2 g/kg treated for 14 days. Particulars: in vivo, 2000 mg/kg, 336 h, time 14 day.
A further data set deals with Cytochrome P450 2D6 (Homo sapiens, UniProt P10635). Kind of data set: Inhibition of CYP2D6 (unknown origin). It counts as ADME.
Chain of Cytochrome P450 2D6 (P10635 whole entry): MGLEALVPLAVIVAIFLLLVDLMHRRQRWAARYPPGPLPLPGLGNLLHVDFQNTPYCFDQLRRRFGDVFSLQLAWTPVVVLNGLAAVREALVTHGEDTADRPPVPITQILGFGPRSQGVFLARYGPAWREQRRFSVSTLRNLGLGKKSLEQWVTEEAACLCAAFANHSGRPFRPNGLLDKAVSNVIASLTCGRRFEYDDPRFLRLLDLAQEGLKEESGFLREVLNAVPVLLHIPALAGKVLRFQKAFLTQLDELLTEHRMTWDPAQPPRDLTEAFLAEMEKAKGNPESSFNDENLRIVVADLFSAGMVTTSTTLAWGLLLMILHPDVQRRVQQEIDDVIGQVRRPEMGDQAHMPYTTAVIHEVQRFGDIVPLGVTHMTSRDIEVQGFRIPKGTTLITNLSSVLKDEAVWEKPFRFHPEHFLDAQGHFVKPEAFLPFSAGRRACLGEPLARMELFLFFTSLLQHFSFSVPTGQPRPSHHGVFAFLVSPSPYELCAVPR
Data set [8] in a line: Acute toxicity in mouse assessed as toxic symptoms treated for 14 days. Particulars: in vivo, 336 h, time 14 day.
Data set [9] in a line: Acute toxicity in mouse assessed as apparent pathological damage in liver treated for 14 days by H and E staining based analysis. It counts as tissue-based. Particulars: in vivo, 336 h, time 14 day.
Data set [10] in a line: Acute toxicity in mouse assessed as apparent pathological damage in kidney treated for 14 days by H and E staining based analysis. Particulars: in vivo, 336 h, time 14 day.
Data set [11] concerns the target Human immunodeficiency virus type 1 reverse transcriptase (Human immunodeficiency virus 1, UniProt Q72547). Kind of data set: Inhibition of recombinant wild-type HIV-1 reverse transcriptase incubated for 40 mins by fluorescence based assay.
Data set [12] can be described thus: Acute toxicity in mouse assessed as apparent pathological damage in lung treated for 14 days by H and E staining based analysis. The class given is tissue-based. The following applies: in vivo, 336 h, time 14 day.
Data set [13] has as its system Human immunodeficiency virus 1. Put plainly: Antiviral activity against HIV-1 harboring RT E138K mutant infected in human MT4 cells assessed as protection against virus-induced cytopathic effect incubated for 5 days by MTT assay. Particulars: Human immunodeficiency virus 1, MT4, 120 h. The class given is functional, organism-based. For orientation: Cytopathic effects are the visible damage that an infection or toxin causes in cultured cells.

The test system of data set [14] is Human immunodeficiency virus 1. Put plainly: Antiviral activity against HIV-1 harboring RT L100I mutant infected in human MT4 cells assessed as protection against virus-induced cytopathic effect incubated for 5 days by MTT assay. The class given is functional, organism-based. The following applies: Human immunodeficiency virus 1, MT4, 120 h.
A further data set concerns the target Cytochrome P450 2C19 (Homo sapiens, UniProt P33261). Put plainly: Inhibition of CYP2C19 (unknown origin). The class given is ADME.
In data set [15] the test system is Human immunodeficiency virus 1. Kind of data set: Antiviral activity against HIV-1 harboring RT K103N mutant infected in human MT4 cells assessed as protection against virus-induced cytopathic effect incubated for 5 days by MTT assay. The class given is functional, organism-based. The following applies: Human immunodeficiency virus 1, MT4, 120 h.
Data set [16] has as its system Human immunodeficiency virus 1. Kind of data set: Antiviral activity against HIV-1 harboring RT Y188L mutant infected in human MT4 cells assessed as protection against virus-induced cytopathic effect incubated for 5 days by MTT assay. It counts as functional, organism-based. The following applies: Human immunodeficiency virus 1, MT4, 120 h.
Data set [17] concerns Human immunodeficiency virus 1. Kind of data set: Antiviral activity against wild-type HIV-1 IIIB infected in human MT4 cells assessed as protection against virus-induced cytopathic effect incubated for 5 days by MTT assay. The following applies: Human immunodeficiency virus 1, IIIB, MT4, 120 h. The class given is functional, organism-based.
The target of another data set is T1, Cytochrome P450 1A2 (Homo sapiens, UniProt P05177).
T1 sequence (P05177 whole entry): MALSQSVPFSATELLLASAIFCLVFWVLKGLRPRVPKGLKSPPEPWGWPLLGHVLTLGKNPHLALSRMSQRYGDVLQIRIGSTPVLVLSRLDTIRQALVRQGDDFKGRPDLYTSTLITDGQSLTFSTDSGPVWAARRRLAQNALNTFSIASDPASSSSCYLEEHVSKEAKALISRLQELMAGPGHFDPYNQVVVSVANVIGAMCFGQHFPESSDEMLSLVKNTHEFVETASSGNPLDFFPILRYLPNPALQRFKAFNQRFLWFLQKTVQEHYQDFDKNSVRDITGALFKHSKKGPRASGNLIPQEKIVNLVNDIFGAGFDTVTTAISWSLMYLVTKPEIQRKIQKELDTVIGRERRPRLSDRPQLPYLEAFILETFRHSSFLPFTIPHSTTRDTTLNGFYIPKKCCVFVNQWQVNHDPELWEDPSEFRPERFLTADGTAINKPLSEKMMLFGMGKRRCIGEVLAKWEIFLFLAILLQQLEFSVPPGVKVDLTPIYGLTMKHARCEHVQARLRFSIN
Kind of data set: Inhibition of CYP1A2 (unknown origin). The class given is ADME.

In another data set the target is Cytochrome P450 2C9 (Homo sapiens, UniProt P11712). Put plainly: Inhibition of CYP2C9 (unknown origin). The class given is ADME.
Chain of Cytochrome P450 2C9 (P11712 whole entry): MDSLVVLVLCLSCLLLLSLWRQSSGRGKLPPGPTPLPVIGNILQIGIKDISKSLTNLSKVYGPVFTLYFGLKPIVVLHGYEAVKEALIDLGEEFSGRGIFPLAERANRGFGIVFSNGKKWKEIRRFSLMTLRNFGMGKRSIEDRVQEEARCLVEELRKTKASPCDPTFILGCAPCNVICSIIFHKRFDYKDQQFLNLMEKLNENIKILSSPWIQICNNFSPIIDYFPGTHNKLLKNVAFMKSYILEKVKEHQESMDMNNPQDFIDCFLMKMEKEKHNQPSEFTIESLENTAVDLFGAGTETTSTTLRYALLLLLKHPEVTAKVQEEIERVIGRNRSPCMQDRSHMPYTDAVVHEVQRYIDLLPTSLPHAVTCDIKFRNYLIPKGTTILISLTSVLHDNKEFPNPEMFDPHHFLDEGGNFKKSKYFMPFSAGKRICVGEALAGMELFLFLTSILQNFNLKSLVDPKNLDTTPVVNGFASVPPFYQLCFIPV
Data set [18] in a line: Acute toxicity in mouse assessed as apparent pathological damage in brain treated for 14 days by H and E staining based analysis. The class given is tissue-based. Particulars: in vivo, 336 h, time 14 day.
Data set [19] addresses T2, Cytochrome P450 3A4 (Homo sapiens, UniProt P08684). Kind of data set: Inhibition of CYP3A4 (unknown origin) using testosterone as substrate. It counts as ADME.
Data set [20] relates to Human immunodeficiency virus 1. Kind of data set: Antiviral activity against HIV-1 harboring RT Y181C mutant infected in human MT4 cells assessed as protection against virus-induced cytopathic effect incubated for 5 days by MTT assay. The class given is functional, organism-based. The following applies: Human immunodeficiency virus 1, MT4, 120 h.
Data set [21] is described as follows: Selectivity index, ratio of CC50 for human MT4 cells to EC50 for wild-type HIV-1 IIIB infected in human MT4 cells. Particulars: read-out: Ratio CC50/EC50. It counts as toxicity, cell-based.
A short description of data set [22]: Acute toxicity in mouse assessed as apparent pathological damage in heart treated for 14 days by H and E staining based analysis. It counts as tissue-based. The following applies: in vivo, 336 h, time 14 day.
Data set [23] addresses Voltage-gated inwardly rectifying potassium channel KCNH2 (Homo sapiens, UniProt Q12809). Put plainly: Inhibition of hERG expressed in CHO cells. It counts as toxicity, cell-based. In general terms: The hERG channel carries a current that helps repolarise heart muscle cells.
Data set [24] is described as follows: Acute toxicity in mouse assessed as animal death treated for 14 days. The following applies: in vivo, 336 h, time 14 day.
The target in data set [25] is T2, Cytochrome P450 3A4. Put plainly: Inhibition of CYP3A4 (unknown origin) using midazolam as substrate. It counts as ADME.
A short description of data set [26]: Acute toxicity in mouse assessed as change in body weight treated for 14 days. Particulars: in vivo, 336 h, time 14 day.
The target of data set [27] is T2, Cytochrome P450 3A4. Put plainly: Inhibition of CYP3A4 (unknown origin). The class given is ADME.

Converted amounts (≈) assume the structure as drawn.

T2 sequence (P08684 whole entry): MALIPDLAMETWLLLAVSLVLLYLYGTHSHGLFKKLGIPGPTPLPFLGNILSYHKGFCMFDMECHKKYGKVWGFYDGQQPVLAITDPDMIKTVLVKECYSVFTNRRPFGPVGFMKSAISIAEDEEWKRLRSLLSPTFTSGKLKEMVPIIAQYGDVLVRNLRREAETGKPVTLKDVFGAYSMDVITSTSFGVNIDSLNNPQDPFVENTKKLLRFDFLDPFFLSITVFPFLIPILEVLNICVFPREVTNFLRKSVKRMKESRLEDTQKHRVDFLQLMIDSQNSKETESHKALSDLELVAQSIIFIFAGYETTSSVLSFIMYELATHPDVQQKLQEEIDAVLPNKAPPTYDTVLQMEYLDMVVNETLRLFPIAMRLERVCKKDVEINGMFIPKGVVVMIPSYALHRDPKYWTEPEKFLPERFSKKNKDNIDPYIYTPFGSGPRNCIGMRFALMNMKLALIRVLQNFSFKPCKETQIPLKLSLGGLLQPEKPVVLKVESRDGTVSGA
Chain of Voltage-gated inwardly rectifying potassium channel KCNH2 (Q12809 whole entry): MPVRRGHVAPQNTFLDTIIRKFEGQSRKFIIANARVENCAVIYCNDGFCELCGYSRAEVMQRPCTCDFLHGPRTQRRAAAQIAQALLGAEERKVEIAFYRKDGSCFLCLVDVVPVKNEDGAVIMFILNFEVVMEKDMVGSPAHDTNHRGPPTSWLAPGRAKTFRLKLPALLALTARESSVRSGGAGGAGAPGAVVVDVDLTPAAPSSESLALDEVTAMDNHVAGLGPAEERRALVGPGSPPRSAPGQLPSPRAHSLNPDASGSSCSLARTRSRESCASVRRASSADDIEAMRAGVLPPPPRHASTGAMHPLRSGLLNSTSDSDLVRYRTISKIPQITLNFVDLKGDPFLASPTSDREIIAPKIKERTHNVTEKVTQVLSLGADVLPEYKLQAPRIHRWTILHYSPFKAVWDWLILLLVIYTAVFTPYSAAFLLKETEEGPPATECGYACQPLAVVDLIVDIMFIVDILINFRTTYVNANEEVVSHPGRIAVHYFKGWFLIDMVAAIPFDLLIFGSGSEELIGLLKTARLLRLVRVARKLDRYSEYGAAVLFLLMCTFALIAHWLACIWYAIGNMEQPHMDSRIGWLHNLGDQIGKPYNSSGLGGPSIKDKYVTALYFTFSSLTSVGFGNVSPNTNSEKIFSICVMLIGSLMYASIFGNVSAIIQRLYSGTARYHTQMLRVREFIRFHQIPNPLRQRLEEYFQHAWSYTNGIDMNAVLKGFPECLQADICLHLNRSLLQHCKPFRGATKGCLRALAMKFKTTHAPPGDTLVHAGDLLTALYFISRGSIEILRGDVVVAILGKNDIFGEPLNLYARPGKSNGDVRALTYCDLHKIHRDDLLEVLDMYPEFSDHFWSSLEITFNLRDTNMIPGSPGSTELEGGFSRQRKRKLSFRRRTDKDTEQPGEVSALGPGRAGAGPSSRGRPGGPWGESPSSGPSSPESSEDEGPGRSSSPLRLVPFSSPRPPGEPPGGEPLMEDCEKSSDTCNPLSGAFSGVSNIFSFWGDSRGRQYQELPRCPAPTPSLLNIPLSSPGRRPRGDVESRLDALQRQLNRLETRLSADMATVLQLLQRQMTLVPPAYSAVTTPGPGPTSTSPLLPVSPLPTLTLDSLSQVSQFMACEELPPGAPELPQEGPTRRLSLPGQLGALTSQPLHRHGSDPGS
Chain of Cytochrome P450 2C19 (P33261 whole entry): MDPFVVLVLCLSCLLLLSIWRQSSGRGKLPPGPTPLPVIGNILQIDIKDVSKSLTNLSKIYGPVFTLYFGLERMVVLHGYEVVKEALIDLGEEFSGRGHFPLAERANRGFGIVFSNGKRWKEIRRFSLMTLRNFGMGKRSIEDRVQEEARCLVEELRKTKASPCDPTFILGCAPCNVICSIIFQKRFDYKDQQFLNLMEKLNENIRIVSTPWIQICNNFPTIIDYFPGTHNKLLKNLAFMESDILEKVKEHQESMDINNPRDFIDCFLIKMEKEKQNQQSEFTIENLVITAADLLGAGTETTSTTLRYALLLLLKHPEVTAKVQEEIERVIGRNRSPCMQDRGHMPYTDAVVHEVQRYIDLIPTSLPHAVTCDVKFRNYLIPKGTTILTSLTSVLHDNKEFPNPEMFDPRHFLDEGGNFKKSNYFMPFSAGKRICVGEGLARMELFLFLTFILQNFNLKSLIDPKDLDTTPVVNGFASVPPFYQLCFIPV

`CCOC(=O)c1cnc(NC2CCN(Cc3ccc(C(=O)NC)cc3)CC2)nc1Oc1c(C)cc(-c2ccc(C#N)cc2)cc1C.Cl`: the solubility (commonly how much of the substance goes into solution per volume) in data set [1] is less than 1 µg/mL; in data set [2], less than 1 µg/mL; in data set [3], 336 µg/mL; in [4], 103 µg/mL.
Take `CCOC(=O)c1cnc(NC2CCN(Cc3ccc(C(=O)NC)cc3)CC2)nc1Nc1c(C)cc(-c2ccc(C#N)cc2)cc1C.O=S(=O)(O)O`: the solubility in data set [1] was less than 1 µg/mL; in [2], less than 1 µg/mL; in data set [3] it was 134 µg/mL; in [4] it was 147 µg/mL.
Regarding `CCOC(=O)c1cnc(NC2CCN(Cc3ccc(C(=O)NC)cc3)CC2)nc1Oc1c(C)cc(-c2ccc(C#N)cc2)cc1C`, the solubility in data set [1] is less than 1 µg/mL; in data set [2], less than 1 µg/mL; in data set [3], less than 1 µg/mL; in data set [4], 109 µg/mL (≈ 177 µM). Besides, the half-maximal cytotoxic concentration (CC50) (commonly the concentration that lowers cell viability or growth by half) at 120 h in data set [5] is more than 202000 nM. Besides, the Activity result in data set [6], in data set [7], in [8], in [9], in data set [10] and in [12] was “Non-Toxic” in each case. In addition, the Activity result in data set [18], in data set [22], in [24] and in data set [26] was “Non-Toxic” in each case. The half-maximal inhibitory concentration (IC50) – broadly, the concentration needed to halve the response being measured – against Cytochrome P450 2D6 is more than 50000 nM; in data set [11] it was 713 nM; on Cytochrome P450 2C19, more than 50000 nM; at Cytochrome P450 1A2, more than 50000 nM; against Cytochrome P450 2C9, more than 50000 nM; against Cytochrome P450 3A4 [19] it was more than 50000 nM. The IC50 is 25900 nM in data set [23] and more than 50000 nM at Cytochrome P450 3A4 [25]. Moreover, the 50% effective concentration (EC50) – broadly, the midpoint of the concentration-response curve – came to 47 nM in data set [13]; 29 nM in data set [14]; 7 nM in data set [15]; 63 nM in data set [16]; 6 nM in data set [17]; 38 nM in data set [20]. Moreover, the selectivity ratio in data set [21] is more than 33100.
On to `C[C@]12CC[C@H]3[C@@H](CCC4=CC(=O)CC[C@@]43C)[C@@H]1CC[C@@H]2O` [TESTOSTERONE], for which, on Cytochrome P450 3A4 [27], the half-maximal inhibitory concentration (IC50) came to 37 nM.
Regarding `Cc1cc(C#N)cc(C)c1Oc1nc(Nc2ccc(C#N)cc2)nc(N)c1Br` [ETRAVIRINE], the solubility in data set [1] and in data set [2] was less than 1 µg/mL each time. Also, the CC50 at 120 h in data set [5] was more than 4610 nM. The EC50 worked out at 13 nM in data set [13] and 24 nM in data set [16].
For the compound `COc1ccc2c(c1)[C@]13CCCC[C@@H]1[C@H](C2)N(C)CC3` [DEXTROMETHORPHAN], the IC50 at Cytochrome P450 2D6 was found to be 242 nM.
Take `Cc1cc(/C=C/C#N)cc(C)c1Nc1ccnc(Nc2ccc(C#N)cc2)n1` [RILPIVIRINE]: the solubility in data set [1] and in [2] was less than 1 µg/mL in each case. Also, the IC50 in [11] was 35 nM.
Regarding `CCOC(=O)c1cnc(NC2CCN(Cc3cccnc3)CC2)nc1Oc1c(C)cc(-c2ccc(C#N)cc2)cc1C`, the CC50 at 120 h in [5] is more than 222000 nM. Further, the IC50 in [11] was 718 nM. Moreover, the concentration giving a half-maximal response (EC50) in [13] came to 70 nM; in data set [14] it was 272 nM; in data set [15], 53 nM; in data set [16], 431 nM; in data set [17], 35 nM; in data set [20], 99 nM. Further, in data set [21], the selectivity ratio is more than 6430.
Regarding `Br.CCOC(=O)c1cnc(NC2CCN(Cc3ccc(C(=O)NC)cc3)CC2)nc1Nc1c(C)cc(-c2ccc(C#N)cc2)cc1C`, the solubility in [1] was less than 1 µg/mL; in data set [2], less than 1 µg/mL; in data set [3], 91.4 µg/mL; in data set [4], 141 µg/mL.
For `CCOC(=O)c1cnc(NC2CCN(Cc3ccc(C(=O)NC)cc3)CC2)nc1Nc1c(C)cc(-c2ccc(C#N)cc2)cc1C.O=P(O)(O)O`, the solubility was less than 1 µg/mL in data set [1], less than 1 µg/mL in data set [2], 77.2 µg/mL in [3] and 136 µg/mL in [4].
As for `CCOC(=O)c1cnc(NC2CCN(Cc3cccc(C(N)=O)c3)CC2)nc1Oc1c(C)cc(-c2ccc(C#N)cc2)cc1C`, in data set [5], the CC50 at 120 h worked out at 11500 nM. The IC50 in [11] was 669 nM. Also, the EC50 in [13] came to 68 nM; in data set [14], 66 nM; in data set [15] it was 44 nM; in [16], 342 nM; in data set [17], 15 nM; in [20], 76 nM. In addition, the selectivity ratio in data set [21] was 757.
